Experimental data taken from article PMC10227015, “From a drug repositioning to a structure-based drug design approach to tackle acute lymphoblastic leukemia” (Nature Communications, 2023).
Like-named read-outs stand apart in the source and are kept apart here.

How the values were obtained:
[1] = test system: CCRF-CEM-CRISPR-sgRNA-dCK− cell line; assay: Proliferation of CCRF-CEM CRISPR-Cas9 cell line deficient for dCK; type: cell-based, human; conditions: dT 200 µM, dC 1 µM
Description: CCFR-CEM cells (obtained from O. Hermine laboratory, Paris, France) were grown at 37 °C in RPMI 1640 with L-glutamine, supplemented with 10% heat-inactivated fetal calf serum. The experiments were carried out on 96-well plates under the following conditions: 14,000 cells per well, RPMI 1640 culture medium supplemented with 10% heat-inactivated fetal calf serum, 200 μM of dT, 1 μM of dC and a range of dilutions of each compound ranging from 40 μM to 10 pM, depending on the activity of the compounds (final 0.2% DMSO). Cells were incubated for 72 h under these different conditions and finally, incubated with 10 µl/well of CellTiter-Blue reagent (Promega) for 4 h at 37 °C. The amount of reduced dye formed by metabolically active cells was quantified by its fluorescence measured at 560 nm (excitation) and 590 nm (emission) in a microplate reader (CLARIOstar, BMG Labtech). A blank well without cells was used as a background control. Each experiment was performed at least three times (with technical triplicates) and data are presented as the mean ± SD.
Stable CCRF-CEM-CRISPR-sgRNA-dCK^− cell line was established by lentiviral transduction using purified lentiviral particles (Horizon Discovery) and blasticidin selection (10 µg/ml). […]

[2] = test system: NOD-SCID-IL2Rγc null (NSG) mice; assay: In vivo toxicity in NSG mice, 2 weeks, with and without dT; conditions: mouse models, 80 mg/kg twice/day
Description: To evaluate the in vivo toxicity selected compounds were injected by intraperitoneal (IP) route to 7 weeks-old male Swiss mice (n = 2) at 10, 20, 40, 50, or 80 mg/kg by unique injection. […] Compounds were administered in their hydrochloride salt forms. Mice were then observed closely for the next one hour, then every hour for 8 h. Observations were continued for 72 h for signs of pain or toxicity such as change in the behavior and in the activity in the cage (decreased locomotion) or change in the appearance (curved back, eyes half-closed, bristle hair, hips hollowed out). In vivo toxicity of compound OR0642 at 40 and 80 mg/kg was also assessed in the NOD-SCID-IL2Rγc null (NSG) mice model for 2 weeks in the presence and absence of dT to confirm the safety of the compound. […]. Blood samples were collected and spun at 10,000 × g prior to collecting the plasma supernatants. All plasma samples were frozen at −80 °C before sample processing. 13 μl of each plasma sample was mixed with 33 μl of acetonitrile to precipitate proteins and extract the compound. […] Supernatants were transferred to a microplate to be analyzed by LC–MS/MS. All samples were analyzed with a UHPLC coupled to a Shimadzu LC-MS 8030 triple quadrupole. The solutions of a standard range, prepared with plasma from untreated mice, were analyzed in the same series of injections.

[3] = biological target: T1, ULK2 (Homo sapiens, UniProt Q8IYT8); assay: KINOMEscan competition binding; conditions: OR0642 1 µM; read-out: %Control
T1 construct: purchased Eurofins DiscoverX (KINOMEscan scanEDGE 97)
Description: (§1) Kinome profiling was provided by Eurofins DiscoverX Corporation. Determination of the % control activity for 97 kinases was obtained through an active site-directed competition binding assay that quantitatively measure interactions between compound and kinases. OR0642 was used at 1 μM.
(§2) Supplementary Table 3. KINOMEscan™ Profiling of OR0642. Competition binding assay to quantitatively measure interactions between OR0642 (1 µM) and 97 human kinases and disease relevant mutant variants.
(§3) Target Gene Symbol %Control Target Gene Symbol %Control […]

[4] = biological target: T2, ABL1-nonphosphorylated (Homo sapiens, UniProt P00519); assay: KINOMEscan competition binding; conditions: OR0642 1 µM; read-out: %Control
T2 construct: purchased Eurofins DiscoverX (KINOMEscan scanEDGE 97)
Description: as §1, §2, §3

[5] = biological target: T3, PKAC-alpha (Homo sapiens, UniProt P17612); assay: KINOMEscan competition binding; conditions: OR0642 1 µM; read-out: %Control
T3 construct: purchased Eurofins DiscoverX (KINOMEscan scanEDGE 97)
Description: as §1, §2, §3

[6] = biological target: T4, TYK2(JH1domain-catalytic) (Homo sapiens, UniProt P29597); assay: KINOMEscan competition binding; conditions: OR0642 1 µM; read-out: %Control
T4 construct: TYK2(JH1domain-catalytic); purchased Eurofins DiscoverX (KINOMEscan scanEDGE 97)
Description: as §1, §2, §3

[7] = test system: PDX UPNT730; assay: Ex vivo testing on PDX samples (viability, flow cytometry, 72 h), with or without OP9-DL1 monolayer; type: cell-based, human; conditions: for viability at 12 µM / viability at 37 µM / viability at 111 µM / viability at 333 µM / viability at 1000 µM / viability at 3000 µM: Homo sapiens, read-out: Cell viability, Mean (% viab); for viability at 12 µM: dT 12 µM; for viability at 37 µM: dT 37 µM; for viability at 111 µM: dT 111 µM; for viability at 333 µM: dT 333 µM; for viability at 1000 µM: dT 1000 µM; for viability at 3000 µM: dT 3000 µM
Excerpt: Bone marrow-infiltrating blasts from terminally mice bearing PDX as stated above were collected as established before. Extensive analysis (immunophenotype and molecular analysis) of matched primary and PDX samples used in the study are shown in Supplementary Table 7, showing that they remain stable. Briefly, after euthanasia, bone marrows from tibiae, hips, femurs, and vertebrae were isolated and blasts collected for subsequent ex vivo experiments. All samples used contained ≥90% blasts as determined by flow cytometry. For the cytotoxic evaluation of OR0642, blasts were then stained with CellTraceTM Violet (CTV, Thermo Fisher Scientific, C34557) prior seeding at 10,000 cells into 96-well plates under normal conditions or pre-plated with OP9-DL1 cells. Cells were cultured in RPMI 1640 supplemented with 20% fetal bovine serum, 50 µg/ml streptomycin, 50 UI penicillin, 4 mM L-glutamine, and a cocktail of human cytokines as previously established (50 ng/ml human stem cell factor, 20 ng/ml hFLT3-L, 10 ng/ml hIL-7 and 20 nM insulin (Miltenyi Biotec))[28]. […] Rescue by dC supplementation (1 µM) was also evaluated. OR0642 was then tested alone, or combined with dT or dT + dC at two concentrations (0.25 and 0.5 µM). Cell viability was evaluated by flow cytometry 72 h post-treatment. Proliferation indexes were calculated using the detection of CTV in the control replicates (DMSO) and the proliferation modeling tool of FlowJo™ Software 10.7.1 (BD Life Sciences). A control peak of undivided CTV-stained cells was systematically used to set the undivided fraction.

[8] = test system: Swiss male mice; assay: Acute in vivo toxicity, unique IP injection; conditions: mice, from 20 mg/kg/day
Description: To evaluate the in vivo toxicity selected compounds were injected by intraperitoneal (IP) route to 7 weeks-old male Swiss mice (n = 2) at 10, 20, 40, 50, or 80 mg/kg by unique injection. […] Compounds were administered in their hydrochloride salt forms. Mice were then observed closely for the next one hour, then every hour for 8 h. Observations were continued for 72 h for signs of pain or toxicity such as change in the behavior and in the activity in the cage (decreased locomotion) or change in the appearance (curved back, eyes half-closed, bristle hair, hips hollowed out). In vivo toxicity of compound OR0642 at 40 and 80 mg/kg was also assessed in the NOD-SCID-IL2Rγc null (NSG) mice model for 2 weeks in the presence and absence of dT to confirm the safety of the compound. […]. Blood samples were collected and spun at 10,000 × g prior to collecting the plasma supernatants. All plasma samples were frozen at −80 °C before sample processing. 13 μl of each plasma sample was mixed with 33 μl of acetonitrile to precipitate proteins and extract the compound. Samples were vortexed for 5 min and then placed in an ultrasonic bath for 1 min. The precipitated proteins were sedimented by centrifugation (15,000 × g, 5 min, 16 °C). Supernatants were transferred to a microplate to be analyzed by LC–MS/MS. All samples were analyzed with a UHPLC coupled to a Shimadzu LC-MS 8030 triple quadrupole. The solutions of a standard range, prepared with plasma from untreated mice, were analyzed in the same series of injections.

T4 sequence (P29597 871-1187 limits assumed): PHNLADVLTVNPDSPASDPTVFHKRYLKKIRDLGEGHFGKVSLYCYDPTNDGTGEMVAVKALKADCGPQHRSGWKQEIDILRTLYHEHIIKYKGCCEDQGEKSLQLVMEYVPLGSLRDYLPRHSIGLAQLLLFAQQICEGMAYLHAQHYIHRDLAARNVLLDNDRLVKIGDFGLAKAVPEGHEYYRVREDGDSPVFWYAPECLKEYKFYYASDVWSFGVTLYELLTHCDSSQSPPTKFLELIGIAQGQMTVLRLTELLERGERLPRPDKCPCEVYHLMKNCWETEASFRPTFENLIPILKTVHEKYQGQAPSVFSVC
T2 sequence (P00519 whole entry): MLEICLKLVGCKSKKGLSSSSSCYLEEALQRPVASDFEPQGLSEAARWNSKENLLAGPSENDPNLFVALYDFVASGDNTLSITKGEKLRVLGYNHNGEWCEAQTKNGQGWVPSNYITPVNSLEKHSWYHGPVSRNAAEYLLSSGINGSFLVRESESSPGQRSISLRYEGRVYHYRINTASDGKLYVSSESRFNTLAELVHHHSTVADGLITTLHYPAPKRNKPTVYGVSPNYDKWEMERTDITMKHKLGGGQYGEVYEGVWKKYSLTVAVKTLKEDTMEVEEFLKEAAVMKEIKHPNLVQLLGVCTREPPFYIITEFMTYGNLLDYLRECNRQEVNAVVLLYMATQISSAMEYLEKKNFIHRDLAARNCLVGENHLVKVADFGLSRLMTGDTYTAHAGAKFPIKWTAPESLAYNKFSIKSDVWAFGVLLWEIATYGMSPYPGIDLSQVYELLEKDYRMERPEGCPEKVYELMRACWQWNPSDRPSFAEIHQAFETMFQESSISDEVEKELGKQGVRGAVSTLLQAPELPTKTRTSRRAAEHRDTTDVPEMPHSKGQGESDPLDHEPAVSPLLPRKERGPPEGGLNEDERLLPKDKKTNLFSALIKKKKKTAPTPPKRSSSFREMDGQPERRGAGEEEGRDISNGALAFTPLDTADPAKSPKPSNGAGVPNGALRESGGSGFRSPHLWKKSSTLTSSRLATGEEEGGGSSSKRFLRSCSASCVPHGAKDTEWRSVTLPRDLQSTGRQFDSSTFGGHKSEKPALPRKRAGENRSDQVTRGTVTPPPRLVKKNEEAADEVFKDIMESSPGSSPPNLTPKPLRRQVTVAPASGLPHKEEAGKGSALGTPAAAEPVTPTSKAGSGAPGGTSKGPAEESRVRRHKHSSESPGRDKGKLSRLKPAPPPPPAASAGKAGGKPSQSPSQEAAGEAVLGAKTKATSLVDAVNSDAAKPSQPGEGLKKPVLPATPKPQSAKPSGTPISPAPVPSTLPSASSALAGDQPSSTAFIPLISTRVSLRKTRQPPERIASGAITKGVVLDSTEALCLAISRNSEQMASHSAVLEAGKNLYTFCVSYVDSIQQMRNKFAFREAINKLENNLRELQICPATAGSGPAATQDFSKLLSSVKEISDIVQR
T1 sequence (Q8IYT8 whole entry): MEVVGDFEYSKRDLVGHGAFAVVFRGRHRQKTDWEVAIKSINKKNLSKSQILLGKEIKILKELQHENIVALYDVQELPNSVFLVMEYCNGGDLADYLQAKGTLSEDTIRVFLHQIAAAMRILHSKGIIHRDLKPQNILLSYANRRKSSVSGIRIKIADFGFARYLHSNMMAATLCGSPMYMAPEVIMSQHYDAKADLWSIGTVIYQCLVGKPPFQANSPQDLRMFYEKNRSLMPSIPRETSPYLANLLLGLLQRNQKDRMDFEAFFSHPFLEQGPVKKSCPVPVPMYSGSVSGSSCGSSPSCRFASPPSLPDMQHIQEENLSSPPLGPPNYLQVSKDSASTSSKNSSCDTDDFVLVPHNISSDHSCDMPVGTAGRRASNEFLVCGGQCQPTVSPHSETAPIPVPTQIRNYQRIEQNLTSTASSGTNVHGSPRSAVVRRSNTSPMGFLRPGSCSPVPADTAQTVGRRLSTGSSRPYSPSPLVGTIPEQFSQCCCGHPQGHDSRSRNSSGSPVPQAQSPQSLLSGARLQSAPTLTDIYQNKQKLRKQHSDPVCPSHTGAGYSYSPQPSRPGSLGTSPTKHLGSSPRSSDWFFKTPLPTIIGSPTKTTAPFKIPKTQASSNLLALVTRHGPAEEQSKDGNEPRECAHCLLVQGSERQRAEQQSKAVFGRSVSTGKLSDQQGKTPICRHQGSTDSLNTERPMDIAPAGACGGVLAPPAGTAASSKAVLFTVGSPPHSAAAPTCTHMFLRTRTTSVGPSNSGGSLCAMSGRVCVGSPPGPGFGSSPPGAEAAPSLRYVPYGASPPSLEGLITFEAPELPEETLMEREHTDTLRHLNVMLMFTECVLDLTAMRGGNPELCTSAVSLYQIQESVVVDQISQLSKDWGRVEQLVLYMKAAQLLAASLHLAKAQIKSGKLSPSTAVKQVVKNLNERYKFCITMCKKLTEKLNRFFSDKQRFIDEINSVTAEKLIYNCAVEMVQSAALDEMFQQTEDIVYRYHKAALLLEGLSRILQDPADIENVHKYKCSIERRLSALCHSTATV

CCCN(c1nc(-c2nc(N)cc(N)n2)cs1)c1cc(-c2ccc(S(=O)(=O)N3CCN(C)CC3)cc2C(F)(F)F)ccc1C [OR0642]
effect on cell proliferation [1]: did not affect cell proliferation | in vivo tolerance [2]: well tolerated | remaining binding at 1 µM [3]: 95% | remaining binding at 1 µM [4]: 94% | remaining binding at 1 µM [5]: 85% | remaining binding at 1 µM [6]: 100%

Cc1cn([C@H]2C[C@H](O)[C@@H](CO)O2)c(=O)[nH]c1=O [dT, thymidine]
viability at 12 µM ([7]; UPNT730 + OP9-DL1): 100% | viability at 37 µM ([7]; UPNT730 + OP9-DL1): 96.3% | viability at 111 µM ([7]; UPNT730 + OP9-DL1): 86.4% | viability at 333 µM ([7]; UPNT730 + OP9-DL1): 82% | viability at 1000 µM ([7]; UPNT730 + OP9-DL1): 72.2% | viability at 3000 µM ([7]; UPNT730 + OP9-DL1): 72.9% | viability at 12 µM ([7]; UPNT730): 100% | viability at 37 µM ([7]; UPNT730): 106% | viability at 111 µM ([7]; UPNT730): 107% | viability at 333 µM ([7]; UPNT730): 109% | viability at 1000 µM ([7]; UPNT730): 102% | viability at 3000 µM ([7]; UPNT730): 105% | Response at dT100 µM ([7]; PDX 730, dT 100 µM): 17 | sensitivity ([7]; proliferative conditions (OP9-DL1 monolayer)): sensitive

CCCN(c1nc(-c2nc(N)cc(N)n2)cs1)c1cc(-c2ccc(CCN3CCN(C)CC3)nc2)ccc1C [OR0602]
in vivo tolerance [8]: unacceptable side effects
